Like-named read-outs stand apart in the source and are kept apart here.
Experiments:
[1] = assay type: physicochemical; details: for Ea (activation energy for decomposition) / k at 25° C.: in xylene
Description: Rates of dioxetane decomposition were monitored by the decay of chemiluminescence of aerated solutions. A cylindrical Pyrex vial equipped with magnet stir bar was filled with 3-4 mL of the reaction solvent, sealed with a Teflon-lined screw cap and placed in the thermostatted sample block of the chemiluminescence-measuring apparatus (Black Box). Temperature control was provided by an external circulating water bath. Appropriate values for the instrument gain and optical slit size were selected. […]. The vial was sealed with a Teflon-lined screw cap to prevent evaporation when high temperatures were used. Measurement of the signal was begun by opening the shutter. The chemiluminescent decay was generally recorded for at least three half-lives. Calculation of the first-order rate constant, k, from the In(Intensity) vs. time data was performed by a computer program utilizing a standard least-squares treatment. The correlation coefficient, r, was typically at least 0.999 and varied less than 5% between replicate samples. The observed rate was not measurably concentration dependent.
Activation parameters for decomposition of the dioxetanes were calculated from plots of In k.vs. 1/T (Arrhenius eq.) or In k/t vs. 1/T (Eyring eq.) by a standard least-squares linear regression analysis.

[2] = assay type: physicochemical; details: for base-induced decomposition, chemiluminescence: room temperature
Description: (§1) A solution of the dioxetane in a suitable solvent (e.g. o-xylene) was placed in the reaction vial as described above. The vial was placed in the sample holder which was maintained at a temperature such that thermal decomposition of the dioxetane was negligible. Instrument parameters were selected as above and data collection started. A solution of the releasing agent (e.g. base or fluoride) preferably in the reaction solvent was injected by syringe into the rapidly stirred dioxetane solution. The volume of releasing agent added was generally less than 5% of the total volume so that temperature fluctuation of the sample during the time course of the decay was minimal. The pseudo-first order decay was monitored for at least three half-lives.
1. Triggering the Chemiluminescence of Hydroxy-Substituted Dioxetanes with Base: Potassium tert-butoxide induced decomposition of 2b. […].

[3] = assay type: physicochemical
Description: as §1
2. Triggering the Chemiluminescence of Silyloxy-Substituted Dioxetanes with Fluoride Ion: Fluoride ion induced decomposition of 2c. […]. […]. A spectrum of the chemiluminescence obtained from the fluoride triggering of 2c in 1:1 aqueous/2-methoxyethanol is shown in FIG. 1 with the solid line. The fluorescence of the cleavage product (methyl 6-hydroxy-2-naphthoate) from the dioxetane is also shown with the dashed line for comparison.

[4] = Triggering properties of further dioxetanes (general statement); assay type: physicochemical
Description: as §1

[5] = assay type: physicochemical; details: 0.002M in 2-methoxyethanol, stored at 0° C.
Description: (§2) A secondary stock solution of the acetate-protected dioxetane 2e was made by evaporating an aliquot of the methylene chloride stock equivalent to 10 micromoles of dioxetane and dissolving in 5.0 mL of 2-methoxyethanol to give a final concentration of 0.002M. […] Buffer solutions prepared in distilled water were 0.05M phosphate pH 7.6 and 8.0, 0.02M Tris (tris-hydroxymethylaninomethane maleate) pH 7.6, and pH 9.0 phosphate/borate buffer. Aryl esterase (also called carboxylic ester hydrolase (P-5221)) from porcine liver was purchased from Sigma Chemical Co. as a suspension of 11 mg of protein per mL in 3.2M (NH4)2 SO4 solution pH 8.0. Each mg of protein is equivalent to 260 Units, where 1 Unit is defined as the amount which will hydrolyze 1 micromole of ethyl butyrate in 1 minute at pH 8.0, 25° C. […] Injection of 1 μL of […] of aryl esterase to the stirred solution caused a chemiluminescent signal to appear. The intensity reached a maximum at about 3 minutes and decayed over a 30 minute period.

[6] = target: T1, Acetylcholinesterase from human erythrocytes (Homo sapiens, UniProt P22303); experiment: Enzymatic triggering of chemiluminescence with acetylcholinesterase; assay type: biochemical; details: 10 μL stock in 3 mL 0.05M phosphate buffer pH 8.0, 37.0° C.
T1 construct: purchased Sigma Chemical Co. C-3389; host or cells: human erythrocytes
T1 sequence (P22303 other isoform, or with tags, fused parts or gaps): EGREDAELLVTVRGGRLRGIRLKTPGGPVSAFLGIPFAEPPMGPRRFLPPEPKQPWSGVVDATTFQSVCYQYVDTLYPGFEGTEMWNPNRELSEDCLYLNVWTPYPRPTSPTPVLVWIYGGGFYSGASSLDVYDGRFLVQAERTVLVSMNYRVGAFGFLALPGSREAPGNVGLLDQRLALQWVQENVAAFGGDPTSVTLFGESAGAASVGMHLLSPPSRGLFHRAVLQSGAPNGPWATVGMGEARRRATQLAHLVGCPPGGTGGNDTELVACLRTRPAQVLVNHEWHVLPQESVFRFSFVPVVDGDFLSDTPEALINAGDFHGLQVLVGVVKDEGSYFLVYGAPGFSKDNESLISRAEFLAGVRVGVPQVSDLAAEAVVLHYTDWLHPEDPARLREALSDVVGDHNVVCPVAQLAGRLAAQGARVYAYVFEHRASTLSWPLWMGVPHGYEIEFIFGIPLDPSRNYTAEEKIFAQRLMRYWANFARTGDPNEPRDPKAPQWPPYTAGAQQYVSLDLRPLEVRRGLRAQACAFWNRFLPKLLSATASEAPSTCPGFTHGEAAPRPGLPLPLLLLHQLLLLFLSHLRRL
From the text: Acetylcholinesterase, an enzyme of considerable biological significance, hydrolyzes acetylcholine to choline and acetic acid under physiological conditions. It was of interest to determine whether this enzyme would also initiate the chemiluminescent decomposition of the acetyl-protected dioxetane 2e by removal of the acetyl group. Acetylcholinesterase (C-3389) from human erythrocytes was purchased from Sigma Chemical Co. as a lyophilized powder containing phosphate buffer salts. […]. Addition of more dioxetane during this period generated more light.

[7] = test system: Aryl esterase (carboxylic ester hydrolase) from porcine liver; experiment: Enzymatic triggering of chemiluminescence with aryl esterase; assay type: biochemical; details: for effect of competing substrate on light intensity of 2e/esterase reaction: 10 μL of […] added at maximum emission, pH 7.6 phosphate buffer, 37° C.; for hydrolysis by the enzyme (UV spectroscopy): under the reaction conditions
Description: as §2
(3.) When distilled water was substituted for the Tris buffer, no chemiluminescence signal was observed, but on adding Tris buffer to this solution light emission similar to that above was produced. […] Addition of untreated enzyme preparation to this solution again produced light. […] The emission could be totally extinguished by addition of sufficient SDS. The decrease in light emission is not due to photophysical quenching of the excited state since thermal decomposition in the same solvent system at elevated temperatures results in readily detectable chemiluminescence.
This type of behavior explains the effect of the addition of the known esterase substrates α-naphthyl acetate and β-naphthyl acetate. […] A solution of 25 μL of the dioxetane stock (0.002M) in 3 mL of pH 7.6 phosphate buffer maintained at 37° C. was treated with 5 μL of the enzyme to initiate the chemiluminescence. At the point of maximum emission 10 μL of 0.011M solution of either α- or β-naphthyl acetate were added.

[8] = Stability of dioxetane in aqueous buffers (IMAX with delay before the enzyme was added); assay type: physicochemical
Description: Stability of Enzyme and Dioxetane to Reaction Conditions. Many dioxetanes are known to be destroyed via a non-luminescent pathway by acid catalyzed processes in aprotic solvents. Similarly, amines are also known to cause the catalytic destruction of dioxetanes via an electron-transfer process. The stability of the dioxetane to the aqueous buffers used in the enzyme reactions, especially Tris buffer, was a matter of concern. A series of experiments were performed to assess the stability of the dioxetane in these buffers over the expected time course of a typical run. A comparison was made between the maximum light intensity produced for a given buffer and temperature with delays of 0 and 30 minutes before the enzyme was added. If the dioxetane were decomposing in the buffer then IMAX of the run where the dioxetane was exposed to the buffer for 30 minutes would be lower provided the enzyme is not saturated. […] In 0.05M phosphate buffer, pH 7.6 at 25° C. and 37 ° C. the percent decrease in IMAX due to the 30 minute delay was, respectively, 0 and 7% while in 0.02M Tris buffer, pH 7.6 at 25° C. a 12% decrease was found and at 37° C. after a delay of one hour a 34% decrease occurred.

[9] = 0.3 μmol dioxetane, 0.26 units aryl esterase, pH 7.6 Tris buffer, 25° C.
[10] = compared with dioxetanes 2a-c and 2e
[11] = polar aprotic solvents such as acetonitrile

COC1(c2ccc3ccccc3c2)OOC12C1CC3CC(C1)CC2C3 (centres unmarked) [Dioxetane 2a, 4-Methoxy-4-(2-naphthyl)spiro[1,2-dioxetane-3,2'-adamantane]]
Ea (activation energy for decomposition) [1]: 29.7 | k at 25° C. ([1]; 25° C.): 3.17e-09 s⁻¹

COC1(c2ccc3cc(O)ccc3c2)OOC12C1CC3CC(C1)CC2C3 (centres unmarked) [Dioxetane 2b, 4-(6-Hydroxy-2-naphthyl)-4-methoxyspiro[1,2-dioxetane-3,2'-adamantane]]
Ea (activation energy for decomposition) [1]: 29.7 | k at 25° C. ([1]; 25° C.): 3.83e-09 s⁻¹ | half-life of chemiluminescence decay, base triggered ([2]; 10^-4 M in o-xylene, potassium t-butoxide 0.005M, 25° C., 100 µM): approximately 20 seconds | base triggered chemiluminescence ([2]; in methanol with KOH or in o-xylene with n-BuLi): bright blue chemiluminescence with similar decay rates

COC1(c2ccc3cc(O[Si](C)(C)C(C)(C)C)ccc3c2)OOC12C1CC3CC(C1)CC2C3 (centres unmarked) [Dioxetane 2c]
half-life of decomposition in the absence of fluoride ion ([1]; 25° C., no fluoride): 2.5 years | Ea (activation energy for decomposition) [1]: 27.0 | k at 25° C. ([1]; 25° C.): 8.72e-09 s⁻¹ | half-life of chemiluminescence decay, fluoride triggered ([3]; 10^-4 M in 0.01M tetrabutylammonium fluoride in 2-methoxyethanol, room temperature, 100 µM): about 20 minutes

COC1(c2ccc3cc(O[Si](c4ccccc4)(c4ccccc4)C(C)(C)C)ccc3c2)OOC12C1CC3CC(C1)CC2C3 (centres unmarked) [Dioxetane 2d]
triggering properties [4]: triggering properties similar to dioxetanes 2a-c and 2e | chemiluminescence in polar aprotic solvents [3]: bright chemiluminescence

COC1(c2ccc3cc(OC(C)=O)ccc3c2)OOC12C1CC3CC(C1)CC2C3 (centres unmarked) [Dioxetane 2e, 4-(6-Acetoxy-2-naphthyl)-4-methoxyspiro[1,2-dioxetane-3,2'-adamantane]]
stability of stock solution [5]: stable indefinitely | duration of light emission [6]: 20 s | period of decay of chemiluminescence [7, 9]: 30 min | time at which intensity reached a maximum [7, 9]: about 3 minutes | maximum light intensity, IMAX, versus temperature ([7]; 1 μL enzyme, Tris buffer, 25°, 37° and 50° C.): increased with increasing temperature | chemiluminescence signal without enzyme ([7]; 150 μL stock in 3.0 mL pH 7.6 Tris buffer, 25° C., before enzyme): no chemiluminescence signal was detected | persistence of thermal chemiluminescence ([1]; aliquot in 3 mL o-xylene at 95° C.): persisted for several hours | percent decrease in IMAX due to delay ([8]; 0.02M Tris buffer pH 7.6, 25° C., 30 minute delay): 12% | percent decrease in IMAX due to delay ([8]; 0.02M Tris buffer pH 7.6, 37° C., delay of one hour): 34% | percent decrease in IMAX due to delay ([8]; 0.05M phosphate buffer pH 7.6, 25° C., 30 minute delay): 0% | percent decrease in IMAX due to delay ([8]; 0.05M phosphate buffer pH 7.6, 37° C., 30 minute delay): 7%

Oc1ccc2c(c1)C1(OOC13C1CC4CC(C1)CC3C4)c1ccccc1-2 (centres unmarked) [Dioxetane 4a]
triggering properties [4, 10]: triggering properties similar to dioxetanes 2a-c and 2e | base-induced decomposition, chemiluminescence [2]: produced chemiluminescence at room temperature

CC(C)(C)[Si](C)(C)Oc1ccc2c(c1)C1(OOC13C1CC4CC(C1)CC3C4)c1ccccc1-2 (centres unmarked) [Dioxetane 4b, Dispiro[adamantane-2,3'-[1,2]dioxetane-4',9"-(2-tert-butyldimethylsilyloxy-9-fluorene)]]
chemiluminescence in polar aprotic solvents [3, 11]: bright chemiluminescence

Oc1ccc2c(c1)Oc1ccccc1C21OOC12C1CC3CC(C1)CC2C3 (centres unmarked) [Dioxetane 6a]
triggering properties [4, 10]: triggering properties similar to dioxetanes 2a-c and 2e | base-induced decomposition, chemiluminescence [2]: produced chemiluminescence at room temperature

CC(C)(C)[Si](C)(C)Oc1ccc2c(c1)Oc1ccccc1C21OOC12C1CC3CC(C1)CC2C3 (centres unmarked) [Dioxetane 6b]
triggering properties [4]: triggering properties similar to dioxetanes 2a-c and 2e | chemiluminescence in polar aprotic solvents [3]: bright chemiluminescence

CC(=O)Oc1ccc2c(c1)Oc1ccccc1C21OOC12C1CC3CC(C1)CC2C3 (centres unmarked) [Dioxetane 6c]
triggering properties [4, 10]: triggering properties similar to dioxetanes 2a-c and 2e

COC1(c2cccc(O)c2)OOC12C1CC3CC(C1)CC2C3 (centres unmarked) [Dioxetane 8a]
base-induced decomposition, chemiluminescence [2]: produced chemiluminescence at room temperature

COC1(c2cccc(O[Si](C)(C)C(C)(C)C)c2)OOC12C1CC3CC(C1)CC2C3 (centres unmarked) [Dioxetane 8b, 4-(3-tert-Butyldimethylsilyloxyphenyl)-4-methoxyspiro[1,2-dioxetane-3,2'-adamantane]]
chemiluminescence in polar aprotic solvents [3, 11]: bright chemiluminescence

CCCCCCCCCCCCOS(=O)(=O)[O-].[Na+] [sodium lauryl sulfate (SDS), sodium lauryl sulfate]
effect of enzyme inhibitor on light emission of 2e/esterase reaction ([7]; added at maximum emission, Tris buffer, 1.5 μL enzyme): irreversible decrease in the intensity

CC(=O)Oc1cccc2ccccc12 [α-naphthyl acetate]
effect of competing substrate on light intensity of 2e/esterase reaction [7]: rapid decrease in light intensity was noted followed by restoration of the original intensity within less than one minute | hydrolysis by the enzyme (UV spectroscopy) [7]: hydrolyzed by the enzyme in seconds

CC(=O)Oc1ccc2ccccc2c1 [β-naphthyl acetate]
effect of competing substrate on light intensity of 2e/esterase reaction [7]: rapid decrease in light intensity was noted followed by restoration of the original intensity within less than one minute | hydrolysis by the enzyme (UV spectroscopy) [7]: hydrolyzed by the enzyme in seconds
